# Reference: patent US6815546B2, “Analogues of camptothecin, their use as medicaments and the pharmaceutical compositions containing them” (Societe de Recherches et d'Applications Scientifiques …, priority 1995, dated 2004)
# Key:
# [1] = target: T1, DNA topoisomerase 1 of purified calf thymus (Bos taurus, UniProt F1MN93); experiment: Relaxation activity test of DNA induced by topoisomerase 1; format: biochemical; conditions: supercoiled pUC19, 15 minutes at 37° C.
# T1 construct: DNA topoisomerase 1 of purified calf thymus (Gibco-BRL, Paisley, United Kingdom); purchased Gibco-BRL, Paisley, United Kingdom; host or cells: calf thymus tissue
# T1 sequence (F1MN93 1-767): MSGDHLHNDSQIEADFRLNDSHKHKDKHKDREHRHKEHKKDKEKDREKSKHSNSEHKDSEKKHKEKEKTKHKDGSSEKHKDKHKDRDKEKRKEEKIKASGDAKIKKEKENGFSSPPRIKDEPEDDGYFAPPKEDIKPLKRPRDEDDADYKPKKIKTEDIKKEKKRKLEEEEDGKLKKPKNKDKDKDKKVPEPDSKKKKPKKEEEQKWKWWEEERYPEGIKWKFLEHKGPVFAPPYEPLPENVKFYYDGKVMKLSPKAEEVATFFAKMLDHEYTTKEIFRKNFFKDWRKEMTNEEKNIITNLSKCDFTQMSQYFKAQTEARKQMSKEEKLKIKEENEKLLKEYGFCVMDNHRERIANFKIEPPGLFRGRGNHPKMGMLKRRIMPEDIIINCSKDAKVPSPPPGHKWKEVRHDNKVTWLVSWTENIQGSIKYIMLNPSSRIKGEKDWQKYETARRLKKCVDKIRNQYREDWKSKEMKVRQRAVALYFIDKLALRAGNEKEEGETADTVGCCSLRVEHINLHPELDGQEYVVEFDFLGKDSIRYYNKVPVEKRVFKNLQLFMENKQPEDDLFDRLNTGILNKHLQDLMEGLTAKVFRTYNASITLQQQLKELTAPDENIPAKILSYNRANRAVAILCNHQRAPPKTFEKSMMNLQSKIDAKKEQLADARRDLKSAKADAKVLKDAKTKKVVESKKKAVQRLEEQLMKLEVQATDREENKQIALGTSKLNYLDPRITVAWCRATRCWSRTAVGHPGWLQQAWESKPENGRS
# Method: 1. Relaxation Activity Test of DNA Induced by Topoisomerase 1
# All the reactions are carried out in a 20 μl reaction buffer constituted by 50 mM of Tris-HCl (pH 7.5), 50 mM of KCl, 0.5 mM of dithiothreitol, 10 mM of MgCl2, 0.1 mM of ethyldiamine tetraacetic acid (EDTA), 30 μg/ml of bovine serum albumin and 300 ng of supercoiled pUC19 (Pharmacia Biotech, Orsay, France) with or without the compounds to be tested at defined concentrations. All the compounds to be tested are initially dissolved in dimethylsulphoxide (DMSO) at 50 mM, the other dilutions being carried out with distilled water. […] The reaction is initiated by the addition of a unit of DNA topoisomerase 1 of purified calf thymus (Gibco-BRL, Paisley, United Kingdom) and is carried out for 15 minutes at 37° C. The reactions are stopped by the addition of 3 μl of a mixture containing 1% dodecyl sodium sulphate at 1%, 20 mM of EDTA and 500 μg/ml of K proteinase (Boehringer Mannheim, Meylan, France). After an additional incubation period of 30 minutes at 37° C., 2 μl of a loading buffer containing 10 mM of Na2HPO4, 0.3% of bromophenol blue et 16% Ficoll are added to samples which are subjected to electrophoresis in agarose gels at 1.2% at 1 V/cm for 20 hours in a buffer containing 36 mM of Tris-HCl at pH 7.8, 30 mM of Na2HPO4, 1 mM of EDTA and 2 μg/ml of chloroquine. The gels are stained with 2 μg/ml of ethidium bromide, photographed under UV light at 312 nm with a camera and the fluorescent intensity is measured with a bioProfil camera (Vilber Lournat, Lyon, France) with a view to determining the percentage of relaxed DNA. Each experiment is carried out at least three times in duplicate.
# In each experiment, the supercoiled plasmid DNA is incubated alone or with topoisomerase 1. The reaction is completed within 15 minutes. For each compound to be tested or control, the supercoiled plasmid DNA is incubated in the presence of 500 μM of compound to be tested with enzyme or without enzyme plus the compound to be tested, at concentrations of 10 μM, 100 μM, 200 μM and 500 μM.
# [2] = tested on: Adenocarcinoma HT29 cells from the human colon; experiment: Adenocarcinoma HT29 cell proliferation, WST1 (compounds in DMA); format: cell-based; conditions: Homo sapiens, HT-29, 72 hours, final DMA 0.1% (v/v)
# Method: c. Adenocarcinoma HT29 cells from the human colon are cultured in a single layer at 37° in a humidified atmosphere containing 95% of air and 5% of CO2, in a modified essential Earle's medium at 4.5 g/l (Gibco, Paisley, United Kingdom); completed with 10% of inactivated foetal calf serum, 2 mM of glutamine, and 50 μg/ml of gentamycin (Gibco, Paisley, United Kingdom).
# Approximately 2000 cells are seeded with the culture medium above in the wells of a microplate (96 wells, flat-bottomed) and incubated for 24 hours. Solutions in N,N-dimethyl-acetamide (DMA) of each of the examples of the invention, diluted in the culture medium so that the final concentration of DMA is 0.1% (v/v), are added to the plate cultures in order to obtain final concentration ranges from 1×10^−13 to 1×10^−5 M, and the cells are incubated for 72 hours.
# The WST1 staining reagent, (Boehringer Mannheim, Germany) is then added to each well at a final concentration of 9%, and the cells are incubated for 2 hours at 37° C. This stage allows the mitochondrial deshydrogenase of the living cells to convert WST1 orange tetrazolium salt into crimson formazan. The resulting stained solutions are quantified by dual-beam detection ([…]) using a multi-cuvette scanning spectrophotometer.
# The results shown in the following table III C) are expressed in terms of inhibitory concentration at 50% (IC50, in nM), accompanied by a confidence interval.
structure (smiles),measurement,setting,value
"CCOC(=O)CC(O)(CC)c1cc2n(c(=O)c1CO)Cc1cc3ccccc3nc1-2 (stereo not drawn) [Example 2, ethyl 3-hydroxy-3-[8-(hydroxymethyl)-9-oxo-9,11-dihydroindolizino [1,2-b]quinolin-7-yl]pentanoate]",PERCENTAGE OF RELAXED DNA,[1]; 10 μM compound,97.9%
same,PERCENTAGE OF RELAXED DNA,[1]; 100 μM compound,78.3%
same,PERCENTAGE OF RELAXED DNA,[1]; 200 μM compound,73.2%
same,PERCENTAGE OF RELAXED DNA,[1]; 500 μM compound,51.1%
"CCN1COc2ccc3nc4c(cc3c2C1)Cn1c-4cc2c(c1=O)COC(=O)CC2(O)CC (stereo not drawn) [Example 76, 2,9-diethyl-9-hydroxy-1,2,3,9,10,16-hexahydro-13H-[1,3]oxazino[5,6-f]oxepino[3′,4′:6,7]indolizino[1,2-b]quinoline-11,14-dione]",PERCENTAGE OF RELAXED DNA,[1]; 10 μM compound,79.7%
same,PERCENTAGE OF RELAXED DNA,[1]; 100 μM compound,33.5%
same,PERCENTAGE OF RELAXED DNA,[1]; 200 μM compound,23.2%
"CCC1(O)CC(=O)OCc2c1cc1n(c2=O)Cc2cc3c4c(ccc3nc2-1)OCN(C)C4 (stereo not drawn) [Example 77, 9-ethyl-9-hydroxy-2-methyl-1,2,3,9,10,16-hexahydro-13H-[1,3]oxazino[5,6f]oxepino[3′,4′:6,7]indolizino[1,2-b]quinoline-11,14-dione]",PERCENTAGE OF RELAXED DNA,[1]; 10 μM compound,86.2%
same,PERCENTAGE OF RELAXED DNA,[1]; 100 μM compound,35.1%
same,PERCENTAGE OF RELAXED DNA,[1]; 200 μM compound,32.1%
"CCC1(O)CC(=O)OCc2c1cc1n(c2=O)Cc2cc3c4c(ccc3nc2-1)OCN(Cc1ccccc1)C4 (stereo not drawn) [Example 78, 2-benzyl-9-ethyl-9-hydroxy-1,2,3,9,10,16-hexahydro-13H-[1,3]oxazino[5,6f]oxepino[3′,4′:6,7]indolizino[1,2-b]quinoline-11,14-dione]",PERCENTAGE OF RELAXED DNA,[1]; 10 μM compound,56.2%
same,PERCENTAGE OF RELAXED DNA,[1]; 100 μM compound,28.0%
same,PERCENTAGE OF RELAXED DNA,[1]; 200 μM compound,24.2%
"CCC1(O)CC(=O)OCc2c1cc1n(c2=O)Cc2cc3c4c(c(F)cc3nc2-1)OCN(Cc1ccccc1)C4 (stereo not drawn) [Example 79, 2-benzyl-9-ethyl-5-fluoro-9-hydroxy-1,2,3,9,10,16-hexahydro-13H-[1,3]oxazino[5,6f]oxepino[3′,4′:6,7]indolizino[1,2-b]quinoline-11,14-dione]",PERCENTAGE OF RELAXED DNA,[1]; 10 μM compound,55.6%
same,PERCENTAGE OF RELAXED DNA,[1]; 100 μM compound,38.9%
same,PERCENTAGE OF RELAXED DNA,[1]; 200 μM compound,30.0%
"CC[C@@]1(O)CC(=O)OCc2c1cc1n(c2=O)Cc2cc3ccc(F)cc3nc2-1 [Example 84, (5R)-5-ethyl-9-fluoro-5-hydroxy-4,5,13,15-tetrahydro-1H,3H-oxepino[3′,4′:6,7]indolizino[1,2-b]quinoline-3,15-dione]",IC50,[2],2.5 nM
"CCCCc1c2c(nc3ccccc13)-c1cc3c(c(=O)n1C2)COC(=O)C[C@]3(O)CC [Example 87, (5R)-12-butyl-5-ethyl-5-hydroxy-4,5,13,15-tetrahydro-1H,3H-oxepino[3′,4′:6,7]indolizino[1,2-b]quinoline-3,15-dione]",IC50,[2],16 nM
"CCc1c2c(nc3ccccc13)-c1cc3c(c(=O)n1C2)COC(=O)C[C@]3(O)CC [Example 88, (5R)-5,12-diethyl-5-hydroxy-4,5,13,15-tetrahydro-1H,3H-oxepino[3′,4′:6,7]indolizino[1,2-b]quinoline-3,15-dione]",IC50,[2],12 nM
"CC[C@@]1(O)CC(=O)OCc2c1cc1n(c2=O)Cc2c-1nc1ccccc1c2-c1ccccc1 [Example 89, (5R)-5-ethyl-5-hydroxy-12-phenyl-4,5,13,15-tetrahydro-1H,3H-oxepino[3′,4′:6,7]indolizino[1,2-b]quinoline-3,15-dione]",IC50,[2],13 nM
"CC[C@@]1(O)CC(=O)OCc2c1cc1n(c2=O)Cc2c-1nc1ccccc1c2-c1ccc(C)cc1 [Example 91, (5R)-5-ethyl-5-hydroxy-12-(4-methylphenyl)-4,5,13,15-tetrahydro-1H,3H-oxepino[3′,4′:6,7]indolizino[1,2-b]quinoline-3,15-dione]",IC50,[2],11 nM
"CC[C@@]1(O)CC(=O)OCc2c1cc1n(c2=O)Cc2c-1nc1cc(F)c(F)cc1c2-c1ccccc1 [Example 93, (5R)-5-ethyl-9,10-difluoro-5-hydroxy-12-phenyl-4,5,13,15-tetrahydro-1H,3H-oxepino[3′,4′:6,7]indolizino[1,2-b]quinoline-3,15-dione]",IC50,[2],12 nM
"CCCCc1c2c(nc3cc(F)c(F)cc13)-c1cc3c(c(=O)n1C2)COC(=O)C[C@]3(O)CC [Example 95, (5R)-12-butyl-5-ethyl-9,10-difluoro-5-hydroxy-4,5,13,15-tetrahydro-1H,3H-oxepino[3′,4′:6,7]indolizino[1,2-b]quinoline-3,15-dione]",IC50,[2],8.5 nM
"CCCc1c2c(nc3cc(F)c(F)cc13)-c1cc3c(c(=O)n1C2)COC(=O)C[C@]3(O)CC [Example 97, (5R)-5-ethyl-9,10-difluoro-5-hydroxy-12-propyl-4,5,13,15-tetrahydro-1H,3H-oxepino[3′,4′:6,7]indolizino[1,2-b]quinoline-3,15-dione]",IC50,[2],11 nM
"CCc1c2c(nc3cc(F)c(F)cc13)-c1cc3c(c(=O)n1C2)COC(=O)C[C@]3(O)CC [Example 98, (5R)-5,12-diethyl-9,10-difluoro-5-hydroxy-4,5,13,15-tetrahydro-1H,3H-oxepino[3′,4′:6,7]indolizino[1,2-b]quinoline-3,15-dione]",IC50,[2],2.1 nM
"CC[C@@]1(O)CC(=O)OCc2c1cc1n(c2=O)Cc2c-1nc1cc(F)c(F)cc1c2CC[Si](C)(C)C [Example 99, (5R)-5-ethyl-9,10-difluoro-5-hydroxy-1 2-(2-trimethylsilylethyl)-4,5,13,15-tetrahydro-1H,3H-oxepino[3′,4′:6,7]indolizino[1,2-b]quinoline-3,15-dione]",IC50,[2],5 nM
"CC[C@@]1(O)CC(=O)OCc2c1cc1n(c2=O)Cc2cc3c(F)cc(F)cc3nc2-1 [Example 100, (5R)-5-ethyl-9,11-difluoro-5-hydroxy-4,5,13,15-tetrahydro-1H,3H-oxepino[3′,4′:6,7]indolizino[1,2-b]quinoline-3,15-dione]",IC50,[2],2.2 nM
